These results are taken from article PMC9380671, “Development of spiro-3-indolin-2-one containing compounds of antiproliferative and anti-SARS-CoV-2 properties” (Scientific Reports, 2022).

Where two headings read alike, the source gives them in different places. Some results are limits rather than exact numbers.

Data set [1] relates to SARS-CoV-2 (hCoV-19/Egypt/NRC-03/2020). Conditions: Vero-E6; cited from earlier work.
For the next data set, the system named is VERO-E6 cells. Conditions: cited from earlier work.
For data set [2], the system named is A431 (skin squamous) cancer cell line. Briefly: MTT antiproliferation, A431. The format is cell-based, human. Conditions: for IC50: Homo sapiens. A digest of the protocol: (§1)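 Cells seeded 30000/well for 24 h, then treated for 72 h with triplicate wells per dose; 0.5% DMSO as negative control. MTT (2.5 mg ml^-1) added for 4 h at 37 °C, crystals dissolved in 10% SDS overnight. Surviving fraction = O.D. treated / O.D. control.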

In data set [3] the test system is SARS-CoV-2 (hCoV-19/Egypt/NRC-03/2020). Nature of the data set: Vero-E6 cell viral infection model, anti-SARS-CoV-2 IC50 (CPE, crystal violet). It counts as cell-based. Conditions: for IC50: Severe acute respiratory syndrome coronavirus 2, Vero C1008.
The target of a further data set is T1, VEGFR-2 (Homo sapiens, UniProt P35968).
T1 construct: Western blot technique was considered for EGFR and VEGFR-2 properties determination; endogenous in cells; host or cells: MCF7 (breast cancer cell line)
T1 sequence (P35968 20-1356): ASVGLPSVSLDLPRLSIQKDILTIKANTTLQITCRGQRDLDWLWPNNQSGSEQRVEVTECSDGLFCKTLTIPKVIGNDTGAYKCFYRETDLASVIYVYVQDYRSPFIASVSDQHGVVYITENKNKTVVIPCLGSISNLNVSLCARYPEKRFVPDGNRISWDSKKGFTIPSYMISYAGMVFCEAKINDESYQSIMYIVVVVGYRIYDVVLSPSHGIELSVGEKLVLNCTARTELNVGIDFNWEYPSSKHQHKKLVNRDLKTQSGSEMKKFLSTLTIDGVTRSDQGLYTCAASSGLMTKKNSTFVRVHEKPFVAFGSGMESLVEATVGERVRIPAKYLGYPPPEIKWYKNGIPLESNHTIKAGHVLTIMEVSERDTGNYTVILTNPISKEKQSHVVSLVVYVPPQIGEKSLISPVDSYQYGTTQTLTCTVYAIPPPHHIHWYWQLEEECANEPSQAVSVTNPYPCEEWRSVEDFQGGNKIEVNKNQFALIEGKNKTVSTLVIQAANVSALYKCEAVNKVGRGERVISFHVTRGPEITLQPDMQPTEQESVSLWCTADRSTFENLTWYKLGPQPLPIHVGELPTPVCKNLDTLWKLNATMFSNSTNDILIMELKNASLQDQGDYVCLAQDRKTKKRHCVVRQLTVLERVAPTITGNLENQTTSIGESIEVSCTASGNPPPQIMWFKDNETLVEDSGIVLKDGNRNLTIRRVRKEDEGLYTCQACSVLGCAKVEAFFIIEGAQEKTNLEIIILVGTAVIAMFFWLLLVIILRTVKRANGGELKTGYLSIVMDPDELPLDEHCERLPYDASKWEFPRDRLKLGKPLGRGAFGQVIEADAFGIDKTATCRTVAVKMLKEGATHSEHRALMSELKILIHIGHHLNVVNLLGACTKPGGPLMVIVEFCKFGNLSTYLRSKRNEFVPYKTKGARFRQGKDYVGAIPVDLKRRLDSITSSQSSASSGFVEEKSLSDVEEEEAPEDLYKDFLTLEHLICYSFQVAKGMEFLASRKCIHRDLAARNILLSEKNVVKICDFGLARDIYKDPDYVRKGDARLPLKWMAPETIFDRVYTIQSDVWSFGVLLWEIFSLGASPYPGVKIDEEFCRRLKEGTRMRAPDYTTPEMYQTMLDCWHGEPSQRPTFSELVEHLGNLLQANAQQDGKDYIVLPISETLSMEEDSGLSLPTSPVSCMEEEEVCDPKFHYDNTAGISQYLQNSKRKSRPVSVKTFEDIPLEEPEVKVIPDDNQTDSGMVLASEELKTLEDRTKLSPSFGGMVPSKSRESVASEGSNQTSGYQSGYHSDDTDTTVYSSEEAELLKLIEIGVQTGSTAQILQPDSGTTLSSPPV
It counts as cell-based. Conditions: western blot, MCF7, compound at its MTT IC50. A digest of the protocol:
(§2)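 Western blot of MCF7 breast cancer cells, each agent tested at its own IC50 from the MTT assay on that line, following the manufacturer's instructions.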
In general terms: In western blotting, separated proteins are transferred to a membrane and probed.

The target in another data set is T2, EGFR (Homo sapiens, UniProt P00533).
T2 construct: Western blot technique was considered for EGFR and VEGFR-2 properties determination; endogenous in cells; host or cells: MCF7 (breast cancer cell line)
T2 sequence (P00533 25-1210): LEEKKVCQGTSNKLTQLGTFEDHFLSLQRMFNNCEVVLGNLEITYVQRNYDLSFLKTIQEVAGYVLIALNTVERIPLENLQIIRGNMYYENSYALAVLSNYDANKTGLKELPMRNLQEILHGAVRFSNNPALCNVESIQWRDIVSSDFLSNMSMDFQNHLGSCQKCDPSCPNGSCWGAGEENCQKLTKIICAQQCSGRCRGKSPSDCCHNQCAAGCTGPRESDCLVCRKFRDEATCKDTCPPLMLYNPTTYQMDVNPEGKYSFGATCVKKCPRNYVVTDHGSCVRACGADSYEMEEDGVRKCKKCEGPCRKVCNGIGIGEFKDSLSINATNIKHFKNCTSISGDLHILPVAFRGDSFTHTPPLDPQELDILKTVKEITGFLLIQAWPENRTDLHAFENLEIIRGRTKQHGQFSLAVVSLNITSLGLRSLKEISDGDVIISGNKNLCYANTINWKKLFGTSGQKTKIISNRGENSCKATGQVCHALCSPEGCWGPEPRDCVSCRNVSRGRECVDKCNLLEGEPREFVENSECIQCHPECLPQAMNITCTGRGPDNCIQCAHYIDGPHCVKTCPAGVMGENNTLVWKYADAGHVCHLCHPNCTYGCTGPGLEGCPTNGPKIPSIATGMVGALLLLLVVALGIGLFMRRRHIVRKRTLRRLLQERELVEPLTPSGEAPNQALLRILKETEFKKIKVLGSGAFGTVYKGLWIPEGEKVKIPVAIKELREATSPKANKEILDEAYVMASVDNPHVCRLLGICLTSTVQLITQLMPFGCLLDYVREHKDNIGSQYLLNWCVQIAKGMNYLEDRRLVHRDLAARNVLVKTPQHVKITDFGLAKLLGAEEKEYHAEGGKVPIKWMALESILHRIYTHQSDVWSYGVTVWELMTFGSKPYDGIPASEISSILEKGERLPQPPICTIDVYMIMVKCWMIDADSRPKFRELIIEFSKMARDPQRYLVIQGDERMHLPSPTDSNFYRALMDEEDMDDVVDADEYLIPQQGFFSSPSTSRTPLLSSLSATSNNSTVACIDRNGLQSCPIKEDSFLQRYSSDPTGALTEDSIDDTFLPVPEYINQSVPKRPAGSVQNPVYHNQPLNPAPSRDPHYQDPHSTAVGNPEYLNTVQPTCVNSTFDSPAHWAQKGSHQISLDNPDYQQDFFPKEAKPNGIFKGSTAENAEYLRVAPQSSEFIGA
The format is cell-based. Conditions: western blot, MCF7, compound at its MTT IC50. A digest of the protocol:
as §2

For another data set, the target named is AChE (Homo sapiens, UniProt P22303). Nature of the data set: AChE inhibition (DTNB, acetylthiocholine). The format is biochemical. How it is done:
All compounds were dissolved in MeOH.

A short description of data set [4]: MTT cytotoxicity assay (CC50). It counts as cell-based. Conditions: African green monkey, VERO-E6 cells. The method, boiled down:
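VERO-E6 cells seeded at 3 x 10^5 cell/ml, grown 24 h at 37 °C, then exposed to compounds in triplicate for 24 h. Viability by MTT (4 h, 37 °C), formazan in acidified isopropanol read at 570 nm; CC50 by nonlinear regression versus untreated cells.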
(Formazan colour is commonly taken as a measure of viable cells.)

For data set [5], the system named is PaCa2 (pancreatic) cancer cell line. Nature of the data set: MTT antiproliferation, PaCa-2. It counts as cell-based, human.
In another data set the target is BChE (Homo sapiens, UniProt P06276). Briefly: BChE inhibition (DTNB, butyrylthiocholine iodide).
Chain of BChE (P06276 29-602, species assumed): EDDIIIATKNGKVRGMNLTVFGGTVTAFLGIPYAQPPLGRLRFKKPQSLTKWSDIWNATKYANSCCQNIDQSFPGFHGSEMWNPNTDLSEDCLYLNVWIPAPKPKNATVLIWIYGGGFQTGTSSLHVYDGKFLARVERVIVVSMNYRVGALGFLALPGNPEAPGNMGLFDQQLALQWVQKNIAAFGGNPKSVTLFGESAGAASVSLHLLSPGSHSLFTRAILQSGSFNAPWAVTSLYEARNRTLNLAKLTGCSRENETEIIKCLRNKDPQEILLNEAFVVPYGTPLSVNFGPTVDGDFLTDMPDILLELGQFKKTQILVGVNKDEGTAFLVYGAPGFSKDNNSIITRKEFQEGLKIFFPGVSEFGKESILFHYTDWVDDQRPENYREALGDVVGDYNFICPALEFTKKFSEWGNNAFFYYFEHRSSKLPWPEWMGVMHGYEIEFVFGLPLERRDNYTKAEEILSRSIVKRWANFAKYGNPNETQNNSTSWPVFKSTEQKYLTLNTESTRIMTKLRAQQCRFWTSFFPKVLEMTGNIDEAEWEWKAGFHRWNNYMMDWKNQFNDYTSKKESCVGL
In data set [6] the test system is RPE1 (normal human immortalized retinal pigment epithelial cell line). Briefly: MTT toxicity towards normal cells, RPE1. It counts as cell-based. Conditions: RPE-1, read-out: IC50 (µM) ± SEM RPE1.
Data set [7] has as its system HCT116 (colon) cancer cell line. Briefly: MTT antiproliferation, HCT116. It counts as cell-based, human. A digest of the protocol:
as §1

Data set [8] relates to MCF7 (breast) cancer cell line. Nature of the data set: MTT antiproliferation, MCF7. The format is cell-based, human. A digest of the protocol: as §1
Setting [9] is: IC50 of RPE1/IC50 of cancer cell line.

Chain of AChE (P22303 32-614): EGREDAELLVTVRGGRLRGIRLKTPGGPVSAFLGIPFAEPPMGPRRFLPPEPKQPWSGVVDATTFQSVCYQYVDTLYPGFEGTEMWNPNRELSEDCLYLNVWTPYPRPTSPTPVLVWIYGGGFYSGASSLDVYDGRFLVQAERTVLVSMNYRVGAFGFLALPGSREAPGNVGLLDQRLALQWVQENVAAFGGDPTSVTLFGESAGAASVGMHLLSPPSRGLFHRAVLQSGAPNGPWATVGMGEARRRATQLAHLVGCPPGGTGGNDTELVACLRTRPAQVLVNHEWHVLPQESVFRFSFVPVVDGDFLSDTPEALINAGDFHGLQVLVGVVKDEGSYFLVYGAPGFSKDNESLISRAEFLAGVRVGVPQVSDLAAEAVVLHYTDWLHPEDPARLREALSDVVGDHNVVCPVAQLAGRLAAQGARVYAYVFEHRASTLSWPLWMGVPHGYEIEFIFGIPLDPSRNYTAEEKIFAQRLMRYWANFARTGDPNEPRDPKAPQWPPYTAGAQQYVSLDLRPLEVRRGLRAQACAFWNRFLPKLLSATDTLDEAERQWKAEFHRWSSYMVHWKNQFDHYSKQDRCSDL
Description for BChE: Butyrylthiocholine iodide and acetylthiocholine were utilized as substrates in BChE and AChE assays, respectively, where DTNB was served as indicator. All compounds were dissolved in MeOH. […] Blank assays were performed by replacing the enzyme (20 μL) with buffer and their absorbances were recorded for correction of the spontaneous lysis of the indicator or inherent color of the inhibitor.
% Inhibition = [1−(corrected A/corrected B)] * 100

The IC50 is the concentration needed to halve the response being measured. For orientation: CC50 means the concentration giving 50% cytotoxicity. In the case of `CCN(CCO)CCCC(C)Nc1ccnc2cc(Cl)ccc12` (stereo not shown) [Hydroxychloroquine], in data set [1], the IC50 is 36.9 µM and the “SI = CC50/IC50” value was 9.7. In addition, the CC50 in the data set with VERO-E6 cells was 356 µM.
Consider `NC(=O)c1nc(F)c[nH]c1=O` [Favipiravir], for which, in data set [1], the half-maximal inhibitory concentration (IC50) is 1380 µM and the “SI = CC50/IC50” value is listed as 3.8. The CC50 in the data set with VERO-E6 cells was 5260 µM.
On to `CCN(CC)CCCC(C)Nc1ccnc2cc(Cl)ccc12` (stereo not shown) [Chloroquine], for which the concentration for half-maximal inhibition (IC50) in data set [1] was 25 µM.
For the compound `CCS(=O)(=O)N1C/C(=C\c2ccccc2)C(=O)C2(C1)C(c1ccccc1)CN(C)C21C(=O)Nc2ccc(Cl)cc21` (stereo not shown) [Compound 6d, (E)-5″-Benzylidene-5-chloro-1″-(ethylsulfonyl)-1′-methyl-4′-phenyldispiro[indoline-3,2′-pyrrolidine-3′,3″-piperidine]-2,4″-dione], the IC50 in [2] (A-431, 72 h, read-out: IC50 (µM) ± SEM A431) was 4.96 ± 0.25 µM; in [2] (A-431, read-out: Observed log(IC50, μM) (A431) (converted)) it was 4.96 µM; in [3] (Vero-E6, 72 h, reduction of virus-induced CPE, read-out: IC50 (µM) SARS-CoV-2), 171 µM; in data set [3] (log of observed IC50 in μM, read-out: Observed log(IC50, μM) (SARS-CoV-2) (converted)), 171 µM; on AChE (read-out: AChE (IC50, μM) ± SD) it was 41 ± 7.03 µM; in data set [5] (Homo sapiens, PaCa-2, 72 h, read-out: IC50 (µM) ± SEM PaCa-2), 13.1 ± 1.1 µM. The half-maximal inhibitory concentration (IC50) against BChE is 34.4 ± 2 µM; in [6] it was more than 50 µM; in data set [7] (Homo sapiens, HCT-116, 72 h, read-out: IC50 (µM) ± SEM HCT116) it was 5.18 ± 0.61 µM; in data set [8] (Homo sapiens, MCF7, 72 h, read-out: IC50 (µM) ± SEM MCF7) it was 6.92 ± 0.55 µM. Also, in data set [2] (setting [9]), the “SI (selectivity index) A431” value is reported as more than 10.1. For the same compound, the “SI = CC50/IC50” value in data set [3] (Vero-E6, SARS-CoV-2) is 101.1. In addition, the “VEGFR-2 % Inhibition” value at VEGFR-2 stood at 63.8%. At VEGFR-2 (control RQ 3.2634), the “VEGFR-2 RQ (relative quantification)” value worked out at 1.181. Further, the “EGFR % Inhibition” value at EGFR is on record as 62.9%. Also, on EGFR (control RQ 3.4461), the “EGFR RQ (relative quantification)” value was found to be 1.2774. In addition, on AChE, the “SI = IC50 (AChE)/IC50 (BChE)” value amounted to 1.2. For the same compound, the half-maximal cytotoxic concentration (CC50) at 24 h in data set [4] was determined as 17300 µM. Moreover, the “SI (selectivity index) PaCa-2” value in data set [5] (setting [9]) is more than 3.8. Further, the “SI (selectivity index) HCT116” value in data set [7] (setting [9]) is reported as more than 9.7. Besides, the “SI (selectivity index) MCF7” value in data set [8] (setting [9]) was more than 7.2.
